Source: patent publication US4413007A, “Pesticidal symmetrical N-substituted bis-carbamoyloximino disulfide compounds” (priority 1978, dated 1983)

How the values were obtained:
[1] = test system: southern armyworm (Prodenia eridania, (Cram.)); assay: Southern Armyworm Leaf Spray Test; type: in vivo; set-up: key: A: excellent control; B: partial control; C: no control; conditions: 500 ppm, three days
Protocol: (§1) Suspensions of the test compounds were prepared by dissolving one gram of compound in 50 milliliters of acetone in which had been dissolved 0.1 gram (10 percent of the weight of compound) of an alkylphenoxy polyethoxyethanol surfactant, as an emulsifying or dispersing agent. The resulting solution was mixed into 150 milliliters of water to give roughly 200 milliliters of a suspension containing the compound in finely divided form. The thus-prepared stock suspension contained 0.5 percent by weight of compound. The test concentrations in parts per million by weight employed in the tests described hereinbelow were obtained by appropriate dilutions of the stock suspension with water. The test procedures were as follows:
Larvae of the southern armyworm (Prodenia eridania, (Cram.)), reared on Tendergreen bean plants at a temperature of 80±5° F. and a relative humidity of 50±5 percent, constituted the test insects.
The test compounds were formulated by diluting the stock suspension with water to give a suspension containing 500 parts of test compound per million parts of final formulation. Potted Tendergreen bean plants of standard height and age were placed on a revolving turntable and sprayed with 100-110 milliliters of test compound formulation by use of a DeVilbiss spray gun set at 10 psig air pressure. This application, which tested 25 seconds, was sufficient to wet plants to run-off. As a control, 100-110 milliliters of a water-acetone-emulsifier solution containing no test compound were also sprayed on infested plants. When dry, the paired leaves were separated and each one was placed in a 9 centimeter Petri dish lined with moistened filter paper. Five randomly selected larvae were introduced into each dish and the dishes were closed. The closed dishes were labeled and held at 80°-85° F. for three days. Although the larvae could easily consume the whole leaf within twenty-four hours, no more food was added. Larvae which were unable to move the length of the body, even upon stimulation by prodding, were considered dead. Percent mortality was recorded for various concentration levels.
(§2) In these tests the pesticidal activity of the compounds against aphid, mite, Southern Armyworm, Bean Beetle and house fly was rated as follows: […]

[2] = test system: house flies (Musca domestica, L.); assay: Fly Bait Test; type: in vivo; set-up: key: A: excellent control; B: partial control; C: no control; conditions: 500 ppm in sugar solution, twenty four hours
Protocol: as §1
Four to six day old adult house flies (Musca domestica, L.) reared according to the specifications of the Chemical Specialities Manufacturing Association (Blue Book, McNair-Dorland Co., N.Y. 1954; pages 243-244, 261) under controlled conditions of 80±5° F. and 50±5 percent relative humidity, were the test insects. The flies were immobilized by anesthetizing with carbon dioxide and twenty five immobilized individuals,males and females, were transferred to a cage consisting of a standard food strainer about five inches in diameter which was inverted over a wrapping-paper-covered surface. The test compounds were formulated by diluting the stock suspension with a 10 percent (by weight) sugar solution to give a suspension containing 500 parts of test compound per million parts of final formulation, by weight. Ten milliliters of the test formulation were added to a souffle cup containing a one-inch square of an absorbent cotton pad. This bait cup was introduced and centered on the blotting paper under the food strainer prior to admitting the anesthetized flies. The caged flies were allowed to feed on the bait for twenty four hours, at a temperature of 80±5° F. and the relative humidity of 50±5 percent.
as §2

[3] = Peroral toxicity to mammals (rat); conditions: in vivo, po, 50 percent mortality, read-out: A.O. Rat (LD50)
Protocol: Certain of these compositions were also evaluated to determine their peroral toxicity to mammals. The animal selected for this experiment was the rat. The test results obtained are expressed in terms of the number of milligrams of compositions per kilogram of weight of the animal required to achieve a mortality rate of 50 percent (LD50).

[4] = test system: Mexican bean beetle (Epilachna varivestis, Muls.); assay: Mexican Bean Beetle Leaf Spray Test; type: in vivo; set-up: key: A: excellent control; B: partial control; C: no control; conditions: 500 ppm, three days
Protocol: as §1
Fourth instar larvae of the Mexican bean beetle (Epilachna varivestis, Muls.), reared on Tendergreen bean plants at a temperature of 80±5° F. and 50±5 percent relative humidity, were the test insects.
The test compounds were formulated by diluting the stock suspension with water to give a suspension containing 500 parts of test compound per million parts of final formulation. Potted Tendergreen bean plants of standard height and age were placed on a revolving turntable and sprayed with 100-110 milliliters of test compound formulation by use of a DeVilbiss spray gun set at 10 psig air pressure. The application, which lasted 25 seconds, was sufficient to wet plants to run-off. As a control, 100-110 milliliters of a water-acetone-emulsifier solution containing no test compound were also sprayed on infested plants. When dry, the paired leaves were separated and each was placed in a 9 centimeter Petri dish lined with moistened filter paper. Five randomly selected larvae were introduced into each dish, and the dishes were closed. The closed dishes were labeled and held at a temperature of 80±5° F. for three days. Although the larvae could easily consume the leaf within 24 to 48 hours, no more food was added. Larvae which were unable to move the length of the body, even upon stimulation, were considered dead.
as §2

[5] = test system: root-knot nematode (Meloidogyne incognita var. acrita); assay: Nematode Test; type: in vivo; set-up: key: 1: severe galling; equal to untreated control; 2: moderate galling; 3: light galling; 4: very light galling; 5: no galling; conditions: 10 ml of 500 ppm formulation per jar (approx. 180 cc soil), cucumber indicator crop, approx. three weeks
Protocol: as §1
Infective migratory larvae of the root-knot nematode, (Meloidogyne incognita var. acrita) were reared in the greenhouse on roots of Rutgers variety tomato plant. Infected tomato plants were removed from the culture and the roots were chopped very finely. A small amount of inoculum from the roots was added to pint Mason jars containing approximately 180 cc of soil. The jars containing the inoculum and soil were capped and incubated for one week at room temperature. During this period eggs of the nematode hatched and the larvae forms migrated into the soil.
The test compounds were formulated by diluting the stock suspension with water to give a suspension containing 500 parts of test compound per million parts of final formulation. 10 milliliters of the test formulation was added to each of two jars for each dosage treated. As a control 10 milliliters of a water-acetone-emulsifier solution containing no test compound was also added to jars containing nematode larvae. The jars were capped and the contents thoroughly mixed on a kale mill for five minutes. The jars remained capped at room temperature for a period of 48 hours and the contents were then transferred to 3 inch pots. Subsequently, the pots were seeded to cucumber as an indicator crop and placed in the green house where they were cared for in the normal fashion for growing potted cucumber for approximately three weeks. These cucumber plants were then removed from the pots, the soil washed from the roots and the amount of galling visually rated.
The nematocidal toxicity has the following ratings;

| SMILES | Southern Armyworm control rating [1] | House-Fly control rating [2] | LD50 [3] | Mexican Bean Beetle control rating [4] | Root-Knot Nematode galling rating [5] |
| --- | --- | --- | --- | --- | --- |
| CN(SSN(C)C(=O)ON=C1CSCCS1)C(=O)ON=C1CSCCS1 [N,N'-Bis-[1,4-Dithiane-2-O-(N-methylcarbamoyl)oximino]disulfide] | A | A | 160 mg/kg | A | 1 |
| CSC(C)=NOC(=O)N(C)SSN(C)C(=O)ON=C(C)SC [N,N'-Bis-[1-Methylthioacetaldehyde O-(N-methylcarbamoyl)oxime]disulfide] | A | A | 190 mg/kg | A | 1 |
| CC(=NOC(=O)N(C)SSN(C)C(=O)ON=C(C)SCCC#N)SCCC#N [N,N'-Bis-[1-(2-Cyanoethylthio)acetaldehyde O-(N-methylcarbamoyl)oxime]disulfide] | A | A | 80 mg/kg | A | 4 |
